Here are results for one compound from patent US20090005253A1, “Double Hybrid System Based on Gene Silencing by Transcriptional Interference” (AVENTIS PHARMA S.A., priority 2004, published 2009).

The assay has as its system Fe65/App interaction. The experiment in a line: growth restoration test on solid medium, yRB49 (rY2H UI interference system) expressing the Fe65/App interaction. The class given is cell-based. The settings on record: medium free of histidine, 1 mM 3-AT; 1 μl at 0.125%, 0.25%, 0.5% or 1% at center of dish; 30° C., 48 hours. On the procedure: The strain containing the UI transcriptional interference system (yRB49) and cotransformed with the plasmids pRB34 and pRB35 (Fe65/App interaction) was plated out onto medium without histidine and containing 1 mM of 3-AT. […] The dishes were incubated at 30° C. for 48 hours.
The strain containing the UI transcriptional interference system (yRB49) was cotransformed with the pairs of plasmids pRB34 and pRB35 (Fe65/App interaction) or pDBT-mdm2 and pVP16-p53Nt (mdm2/p53 interaction). The strain containing the plasmids pRB34 and pRB35 (Fe65/App interaction) was plated out onto 5 dishes of medium without histidine supplemented with 1 mM of 3-AT (top row); the strain containing the plasmids pDBT-mdm2 and pVP16-p53Nt (mdm2/p53 interaction) was similarly plated out onto 5 dishes of medium without histidine supplemented with 20 mM of 3-AT (bottom row).
A control dish was prepared for each interaction by depositing 1 μl of histidine at 0.125% w/v at the center of this dish. A different molecule, A, B, C or D, was deposited onto each of the other 4 dishes, according to the following scheme: in the upper left corner, 1 μl of the product at a concentration of 0.1 mM is deposited; in the upper right corner, 1 μl of the same product at a concentration of 1 mM is deposited; at the center, 1 μl of this product at 10 mM is deposited. […]

As to `N[C@@H](Cc1c[nH]cn1)C(=O)O` [histidine], the “restoration of growth around the deposit by nutrient (FIG. 8C)” value is “capable of restoring the growth”.
